Experimental data: US20220235065A1 (Epizyme, Inc., priority 2016, published 2022)
Counter-ions that a name gives are not always drawn.

Assays:
[1] = system: H3K9me2 in MDA-MB-231 cells; assay: MDA-MB-231 H3K9me2 in-cell western assay; assay type: cell-based; details: Homo sapiens, read-out: EHMT2 ICW (IC50 μM)
Summary of the method: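 MDA-MB-231 cells (3,000/well) exposed to compound for two consecutive 48 h periods at 37 °C, then fixed and stained for H3K9me2, with DRAQ5 as DNA stain and infrared read at 700/800 nm. Percent inhibition was set between DMSO and UNC0638 control wells. IC50 came from triplicate dose–response fits with a four-parameter model, top 100%, bottom 0%.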

[2] = target: T1, EHMT1 (Homo sapiens, UniProt Q9H9B1); assay: EHMT1 PEP (EHMT1 peptide enzyme assay); assay type: biochemical; details: peptide substrate enzyme assay
T1 sequence (Q9H9B1 1-1298): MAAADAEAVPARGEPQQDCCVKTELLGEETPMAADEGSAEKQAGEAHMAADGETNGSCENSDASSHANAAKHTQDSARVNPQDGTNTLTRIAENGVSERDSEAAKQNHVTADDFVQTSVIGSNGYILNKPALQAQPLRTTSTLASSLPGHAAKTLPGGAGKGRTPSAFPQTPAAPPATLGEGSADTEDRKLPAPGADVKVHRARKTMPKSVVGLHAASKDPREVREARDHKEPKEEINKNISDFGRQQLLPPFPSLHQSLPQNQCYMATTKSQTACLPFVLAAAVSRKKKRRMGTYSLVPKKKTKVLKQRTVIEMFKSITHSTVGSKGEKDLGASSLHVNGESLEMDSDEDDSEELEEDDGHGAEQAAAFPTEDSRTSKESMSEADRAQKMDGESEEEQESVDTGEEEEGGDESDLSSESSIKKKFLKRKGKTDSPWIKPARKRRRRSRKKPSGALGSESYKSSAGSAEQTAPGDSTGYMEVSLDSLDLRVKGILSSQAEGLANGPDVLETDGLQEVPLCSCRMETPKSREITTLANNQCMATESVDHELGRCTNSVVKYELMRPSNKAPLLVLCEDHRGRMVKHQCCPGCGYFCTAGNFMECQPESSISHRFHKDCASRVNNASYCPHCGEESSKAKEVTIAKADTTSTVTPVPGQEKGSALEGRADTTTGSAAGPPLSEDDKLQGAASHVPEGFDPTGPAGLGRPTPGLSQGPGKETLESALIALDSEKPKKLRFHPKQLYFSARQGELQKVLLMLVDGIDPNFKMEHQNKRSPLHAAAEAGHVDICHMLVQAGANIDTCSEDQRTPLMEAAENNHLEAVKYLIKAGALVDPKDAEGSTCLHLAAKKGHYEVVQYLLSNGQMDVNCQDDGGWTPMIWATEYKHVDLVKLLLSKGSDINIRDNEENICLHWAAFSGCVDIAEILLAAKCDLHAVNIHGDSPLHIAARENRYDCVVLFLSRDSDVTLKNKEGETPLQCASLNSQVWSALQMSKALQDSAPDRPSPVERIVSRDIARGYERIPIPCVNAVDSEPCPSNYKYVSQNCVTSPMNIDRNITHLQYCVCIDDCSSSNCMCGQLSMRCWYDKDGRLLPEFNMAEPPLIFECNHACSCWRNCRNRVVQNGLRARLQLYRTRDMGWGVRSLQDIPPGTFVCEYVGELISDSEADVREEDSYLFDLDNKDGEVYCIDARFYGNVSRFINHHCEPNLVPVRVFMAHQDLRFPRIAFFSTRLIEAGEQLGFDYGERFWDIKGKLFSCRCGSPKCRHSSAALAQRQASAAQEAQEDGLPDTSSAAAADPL

| IC50 [1] [µM] | IC50 [2] [µM] | SMILES |
| --- | --- | --- |
| 1 to 10 | 0.1 to 1 | CNCc1ccnc(-c2cc(Nc3nc(C)cc(NC)n3)ccc2OC)c1 [Compound 313] |
| > 10 | 1 to 10 | CNc1cc(C)nc(Nc2ccc(OC)c(-n3ncc4c3CCCC4)c2)n1 [Compound 26, 2-N-[4-methoxy-3-(4,5,6,7-tetrahydro-1H-indazol-1-yl)phenyl]-4-N,6-dimethylpyrimidine-2,4-diamine trifluoroacetic acid] |
| 0.1 to 1 | < 0.1 | CNC1=Nc2cc(-n3cc(CN4CCC4)cn3)c(OC)cc2C12CCC2 [Compound 314] |
| > 10 | 1 to 10 | COc1cc(NC2CCNC2)ccc1-c1[nH]c2cnccc2c1C (centres unmarked) [Compound 305] |
| > 10 | 1 to 10 | Cc1cc(NC2CCNCC2)ncc1-c1cc2[nH]ccc2cn1 [Compound 247] |
| > 10 | 1 to 10 | COc1cc(NC2CCNCC2)ccc1-c1[nH]c2cnccc2c1C [Compound 310] |
| < 0.1 | < 0.1 | CNCc1cnn(-c2cc(Nc3nc(C)cc(NC)n3)ccc2C)c1 [Compound 286, N4,6-dimethyl-N2-(4-methyl-3-(4-((methylamino)methyl)-1H-pyrazol-1-yl)phenyl)pyrimidine-2,4-diamine] |
| > 10 | > 10 | CNc1cc(C)nc(Nc2ccc(C)c(C(=O)Nc3cn(C)cn3)c2)n1 [Compound 302] |
| > 10 | > 10 | CNc1cc(C)nc(Nc2ccc(OC)c(-n3cccn3)c2)n1 [Compound 15, 2-N-[4-methoxy-3-(1H-pyrazol-1-yl)phenyl]-4-N,6-dimethylpyrimidine-2,4-diamine; trifluoroacetic acid] |
| < 0.1 | < 0.1 | CNc1cc(C)nc(Nc2ccc(C)c(-n3cc4cnccc4n3)c2)n1 [Compound 282] |
| 0.1 to 1 | 0.1 to 1 | CNCc1cnn(-c2c(F)ccc(Nc3nc(C)cc(NC)n3)c2OC)c1 [Compound 318] |
| < 0.1 | < 0.1 | CNCc1cnn(-c2c(Cl)ccc(Nc3nc(C)cc(NC)n3)c2F)c1 [Compound 328] |
| > 10 | > 10 | CNc1cc(C)nc(Nc2ccc(OC)c(-c3nnc4n3CCNC4)c2)n1 [Compound 21] |
| < 0.1 | < 0.1 | CNCc1cnn(-c2c(F)ccc(Nc3nc(C)cc(NC)n3)c2Cl)c1 [Compound 329] |
| 0.1 to 1 | < 0.1 | CCc1ccc(Nc2nc(C)cc(NC)n2)cc1-n1cc(CNC)cn1 [Compound 320] |
| < 0.1 | < 0.1 | CNc1cc(C)nc(Nc2ccc(OC)c(-c3cc4[nH]cc(C)c4cn3)c2)n1 [Compound 386] |

| IC50 [1] [µM] | IC50 [2] [µM] | SMILES |
| --- | --- | --- |
| < 0.1 | < 0.1 | CNCc1cnn(-c2cc(Nc3nc(C)cc(NC)n3)ccc2Cl)c1 [Compound 262, N2-(4-chloro-3-(4-((methylamino)methyl)-1H-pyrazol-1-yl)phenyl)-N4,6-dimethylpyrimidine-2,4-diamine] |
| 1 to 10 | 1 to 10 | CNc1cc(C)nc(Nc2ccc(OC)c(-c3[nH]c4cnccc4c3C#N)c2)n1 [Compound 291] |
| < 0.1 | < 0.1 | CNCc1cnn(-c2cc(Nc3nc(C)cc(NC)n3)ccc2OC)c1 [Compound 285] |
| 1 to 10 | 1 to 10 | CNc1cc(C)nc(Nc2ccc(OC)c(-n3ncc4cnccc43)c2)n1 [Compound 35, 2-N-(4-methoxy-3-[1H-pyrazolo[4,3-c]pyridin-1-yl]phenyl)-4-N,6-dimethylpyrimidine-2,4-diamine; trifluoroacetic acid] |
| 0.1 to 1 | < 0.1 | CNc1cc(C)nc(Nc2ccc(Cl)c(-c3cc4[nH]ccc4cn3)c2)n1 [Compound 255] |
| 0.1 to 1 | < 0.1 | CNCc1cnn(-c2cc(Nc3nc(C)cc(NC)n3)ccc2C(F)(F)F)c1 [Compound 325] |
| 1 to 10 | 0.1 to 1 | CNc1cc(C)nc(Nc2ccc(Cl)c(C(=O)Nc3ncccn3)c2)n1 [Compound 258] |
| 1 to 10 | < 0.1 | CNc1cc(C)nc(Nc2ccc(OC)c(-n3cc(CN)cn3)c2)n1 [Compound 23, 2-N-[3-[4-(aminomethyl)-1H-pyrazol-1-yl]-4-methoxyphenyl]-4-N,6-dimethylpyrimidine-2,4-diamine; trifluoroacetic acid] |
| > 10 | 0.1 to 1 | CNc1nc2cc(-c3[nH]c4cnccc4c3C)c(OC)cc2n1C [Compound 304] |
| 1 to 10 | 0.1 to 1 | CNc1nc2cc(-c3cc4[nH]ccc4cn3)c(C)cc2n1C [Compound 257] |
| 0.1 to 1 | < 0.1 | CNC1=Nc2cc(-n3cc(C4CCCN4)cn3)c(OC)cc2C12CCC2 (centres unmarked) [Compound 322] |
| > 10 | > 10 | CNc1cc(C)nc(Nc2ccc(OC)c(-c3c(C)nc4cnccn34)c2)n1 [Compound 39] |
| > 10 | 1 to 10 | CNc1cc(C)nc(Nc2ccc(OC)c(-n3cc4c(n3)CNCC4)c2)n1 [Compound 22, 2-N-(4-methoxy-3-[2H,4H,5H,6H,7H-pyrazolo[3,4-c]pyridin-2-yl]phenyl)-4-N,6-dimethylpyrimidine-2,4-diamine hydrochloride] |
| < 0.1 | < 0.1 | CNCc1cnn(-c2c(Cl)ccc(Nc3nc(C)cc(NC)n3)c2Cl)c1 [Compound 327] |
| > 10 | 0.1 to 1 | COc1cc2c(cc1-c1cc3[nH]ccc3cn1)N=C(NCC(N)=O)C21CCC1 [Compound 309] |
